Test results from patent US7399475B1, “Inactivated microorganisms comprising substances having pharmacological activity” (Toner Enterprise Inc., priority 1999, dated 2008).

What was measured:
[1] = Quantity of active agent incorporated in the yeast cells, released by hypertonic (osmotic) treatment and determined by HPLC; type: physicochemical, Saccharomyces cerevisiae; conditions: batch not stated, column unlabelled
Method: The suspensions obtained as described above were tested in order to check the quantity of ascorbic acid that had accumulated in the cells.
Step IV)—The suspension obtained in Step III) was centrifuged at 4000 r.p.m. (1252 R.C.F.). The precipitated was washed twice (sample A) or thrice (sample B) with an isotonic solution of sodium chloride (0.9%) keeping it in suspension during each washing.
Step V)—The centrifugate was brought up to 80 g with the hypertonic solution (NaCl 2.0M) used for Step I). In order to complete the osmotic treatment, the suspension was kept under gentle stirring for 6 hours at 25° C.
Step VI)—The ascorbic acid present in each solution (mg/ml) and in the microorganism (mg/g) was determined by HPLC, by the use of the following formula: mg/g=Ac×Ps×fs×Ds×1000/As×Pc×Dc,
The suspension obtained as described above was tested in order to check the quantity of oxytetracycline that had accumulated in the cells.
Step IV)—The suspension obtained in Step II) was centrifuged at 4000 r.p.m. (1252 R.C.F.). The centrifugate was washed twice (A) or thrice (B) with an isotonic solution of sodium chloride (0.9%) keeping it in suspension for 10 minutes before centrifugation.
Step VI)—The oxytetracycline HCl present in each solution (mg/ml) and in the microorganism (mg/g) was determined by HPLC, by the use of the following formula: mg/g=Ac×Ps×fs×Ds×1000/As×Pc×Dc,
The suspension obtained as described above was tested in order to check the quantity of sodium sulphadimethoxine that had accumulated in the cells.
Step VI)—The sodium sulphadimethoxine present in each (mg/ml) and in the microorganism (mg/g) was determined by HPLC, by the use of the following formula: mg/g=Ac×Ps×fs×Ds×1000/As×Pc×Dc,
The suspension as previously obtained was tested to ascertain the quantity of sodium sulphadimethoxin that had accumulated in the cells.
Step IV)—For analytical reasons, the suspension obtained in Step III) was diluted with an isotonic solution of sodium sulphadimethoxin (5.17%) to 200 g. An aliquot of 80 g of suspension was taken. The suspension was centrifuged at 10 000 r.p.m., and the centrifugate was washed twice (A) or thrice (B) with an isotonic solution of sodium chloride (0.9%). The suspension was stirred for 10 minutes before each washing.
Step VI)—The sodium sulphadimethoxin present in solution (mg/ml) and in the microorganism (mg/g) was determined by HPLC, by the use of the following formula: mg/g=Ac×Ps×fs×Ds×1000/As×Pc×Dc,
The suspension obtained as described above was tested in order to check the quantity of ascorbic acid that had been loaded in the cells. […]
Step VI)—The ascorbic acid present in the washing solution (mg/ml) and in the microorganism (mg/g) was determined by HPLC, by the use of the following formula: mg/g=Ac×Ps×fs×Ds×1000/As×Pc×Dc, […]

[2] = known from the literature; cited from earlier work
[3] = Incorporated vitamins determined by HPLC after 5N HCl or NaOH 0.05N extraction of dried yeast; type: physicochemical, Saccharomyces cerevisiae; conditions: Example 10, content in dried loaded yeast; for Incorporated vitamins (HCl extraction), Content: 5N HCl extraction; for Incorporated vitamins (NaOH extraction), Content: NaOH 0.05N extraction
Method: In this treatment yeast cells have been partially emptied by the hypertonic solution, comprising NaCl and Trisodium citrate bihydrate, as already described. Vitamins were then incorporated by incubation in a vitamins hypotonic solution (hypotonic=80% isotonicity). The quantity of vitamins loaded into the cells, was measured by HPLC. The suspension was then centrifuged and the centrifugates was washed twice with 560 g NaCl isotonic solution (0.9%). Step IV)-The centrifugate was air-dried at 45° C. for 36 hours. After mincing the dried pellets were sifted on a 400μ net. Step V)-The incorporated vitamins quantities were determined by HPLC af[…] HCl extraction for one hours at 25° C. under gentle stirring and after NaOH 0.05N extraction (one hours at 25° C. under gentle stirring). In this treatment yeast cells have been partially emptied by the hypertonic solution, comprising NaCl and Trisodium citrate bihydrate, as already described. α-tocopherol (vitamin E) was then incorporated by incubation in a vitamin hypotonic solution (hypotonic=80% isotonicity). The quantity of vitamin loaded into the cells, was measured HPLC. […] An aliquot of the solution (B), was then washed one more time with a NaCl isotonic solution Step IV)-The centrifugate was air-dried at 40° C. for 36 hours. The dried mass of cells was minced and then sifted on a 400μ net. Step V)-The incorporated vitamin quantities were determined by HPLC af[…] HCl extraction for one hour at 25° C. under gentle stirring.

Compound | Incorporated vitamins (HCl extraction), Content [3] | Incorporated vitamins (NaOH extraction), Content [3] | other results
O=C1O[C@H]([C@@H](O)CO)C(O)=C1O [Ascorbic acid, ascorbic acid] | – | – | Ascorbic acid final soln. ([1]; Example 5, Test 5NC): 0.16 mg/mL; thermostability of ascorbic acid as such [2]: easily denatured at much lower temperatures
Nc1nc2ncc(CNc3ccc(C(=O)N[C@@H](CCC(=O)O)C(=O)O)cc3)nc2c(=O)[nH]1 [Folic Acid, folic acid] | 0.203 0/00 (mg/g) | 2.663 0/00 (mg/g) | –
CN(C)[C@@H]1C(O)=C(C(N)=O)C(=O)[C@@]2(O)C(O)=C3C(=O)c4c(O)cccc4[C@@](C)(O)[C@H]3[C@H](O)[C@@H]12.Cl [Oxytetracyclin, oxytetracycline HCl] | – | – | Oxytetracyclin final soln. ([1]; Example 2, Test 3NO): 0.249 mg/mL
Cc1ncc(C[n+]2csc(CCO)c2C)c(N)n1 [Tiamine, thiamine] | 3.787 0/00 (mg/g) | 3.493 0/00 (mg/g) | –
COc1cc([N-]S(=O)(=O)c2ccc(N)cc2)nc(OC)n1.[Na+] [sulphadimetoxin, sodium sulphadimethoxine] | – | – | Sulphadimetoxin final soln. ([1]; Example 3, Test 4NS1): 0.075 mg/mL; Sulphadimetoxin final soln. ([1]; Example 4, Test 6NS1): 0.066 mg/mL
cyanocobalamin | 0.018 0/00 (mg/g) | 0.014 0/00 (mg/g) | –
